Values joined by “and” are separate entries in the source; they are usually repeats but may differ in a detail not shown here. Equal values may be shown once.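 How tested: cells in 96-well plates exposed to compound for 48 hours at five concentrations. GI50 = concentration required for 50% inhibition of growth. At the TGI there is no net growth.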
Legend:
Assay in all cases: NCI tumour cell line growth inhibition, 48 h
[1] = test system: LOX IMVI melanoma
[2] = test system: UACC-257 melanoma
[3] = test system: A498 renal
[4] = test system: RXF 393 renal
[5] = test system: PC-3 prostate
[6] = test system: SK-MEL-28 melanoma
[7] = test system: HS 578T breast
[8] = test system: OVCAR-4 ovarian
[9] = test system: CAKI-1 renal
[10] = test system: HT29 colon
[11] = test system: SNB-19 CNS
[12] = test system: ACHN renal
[13] = test system: SK-MEL-2 melanoma
[14] = test system: MOLT-4 leukemia
[15] = test system: SK-OV-3 ovarian
[16] = test system: MDA-MB-231 breast
[17] = test system: KM12 colon
[18] = test system: CCRF-CEM leukemia
[19] = test system: SW-620 colon
[20] = test system: MDA-MB-435
[21] = test system: TK-10 renal
[22] = test system: HOP-62 NSCLC
[23] = test system: SR leukemia
[24] = test system: SN12C renal
[25] = test system: NCI-H226 lung
[26] = test system: SF-539 CNS
[27] = test system: 786-0 renal
[28] = test system: IGROV1 ovarian
[29] = test system: NCI-H522 lung
[30] = test system: HCT-15 colon
[31] = test system: OVCAR-8 ovarian
[32] = test system: SF-295 CNS
[33] = test system: U251 CNS
[34] = test system: NCI-H23 lung
[35] = test system: K-562 leukemia
[36] = test system: BT-549 breast
[37] = test system: HCC-2998 colon
[38] = test system: DU-145 prostate
[39] = test system: EKVX NSCLC
[40] = test system: OVCAR-5 ovarian
[41] = test system: M14 melanoma
[42] = test system: SNB-75 CNS
[43] = test system: NCI/ADR-RES ovarian
[44] = test system: COLO 205 colon
[45] = test system: A549 NSCLC
[46] = test system: UO-31 renal
[47] = test system: SK-MEL-5 melanoma
[48] = test system: HOP-92 NSCLC
[49] = test system: MCF7 breast
[50] = test system: T-47D breast
[51] = test system: OVCAR-3 ovarian
[52] = test system: NCI-H460 lung
[53] = test system: RPMI-8226 leukemia
[54] = test system: UACC-62 melanoma
[55] = test system: HCT-116 colon
[56] = test system: HL-60(TB) leukemia
[57] = test system: MALME-3M melanoma
[58] = test system: SF-268 CNS

O=C(c1cc(Cc2n[nH]c(=O)c3ccccc23)ccc1F)N1CCN(C(=O)C2CC2)CC1
GI50 [1]: 18.9 µM and 66.3 µM
TGI [1]: > 100 µM
GI50 [2]: > 100 µM
TGI [2]: > 100 µM
GI50 [3]: 19 µM and > 55.7 µM
TGI [3]: > 100 µM
GI50 [4]: 52.1 µM and > 41.4 µM
TGI [4]: > 100 µM
GI50 [5]: 43.1 µM and > 71.4 µM
TGI [5]: > 100 µM
GI50 [6]: > 100 µM
TGI [6]: > 100 µM
GI50 [7]: 12.4 µM and > 100 µM
TGI [7]: > 100 µM
GI50 [8]: 22.7 µM and 36 µM
TGI [8]: > 100 µM
GI50 [9]: 16.5 µM and 54.5 µM
TGI [9]: 48.1 µM and > 100 µM
GI50 [10]: > 100 µM
TGI [10]: > 100 µM
GI50 [11]: 80.5 µM and > 85.1 µM
TGI [11]: > 100 µM
GI50 [12]: 96.1 µM and 88.2 µM
TGI [12]: > 100 µM
GI50 [13]: > 100 µM
TGI [13]: > 100 µM
GI50 [14]: 46.7 µM and 22.4 µM
TGI [14]: > 100 µM
GI50 [15]: > 100 µM
TGI [15]: > 100 µM
GI50 [16]: > 100 µM
TGI [16]: > 100 µM
GI50 [17]: > 100 µM
TGI [17]: > 100 µM
GI50 [18]: > 100 µM
TGI [18]: > 100 µM
GI50 [19]: 64.4 µM and > 94.1 µM
TGI [19]: > 100 µM
GI50 [20]: 58 µM and 97.6 µM
TGI [20]: > 100 µM
GI50 [21]: > 100 µM and 48.1 µM
TGI [21]: > 100 µM
GI50 [22]: 43.2 µM
TGI [22]: > 100 µM
GI50 [23]: 7.78 µM and 14.1 µM
TGI [23]: > 100 µM
GI50 [24]: > 100 µM
TGI [24]: > 100 µM
GI50 [25]: 41.3 µM and 48.8 µM
TGI [25]: > 100 µM
GI50 [26]: > 100 µM
TGI [26]: > 100 µM
GI50 [27]: > 100 µM
TGI [27]: > 100 µM
GI50 [28]: 56.8 µM and 68.3 µM
TGI [28]: > 100 µM
GI50 [29]: > 100 µM
TGI [29]: > 100 µM
GI50 [30]: > 100 µM
TGI [30]: > 100 µM
GI50 [31]: > 100 µM
TGI [31]: > 100 µM
TGI [32]: 23.4 µM and > 100 µM
GI50 [33]: 35.1 µM and 31.5 µM
TGI [33]: > 100 µM
GI50 [34]: 23.6 µM and 40.3 µM
TGI [34]: > 100 µM
GI50 [35]: 54.5 µM and > 66.4 µM
TGI [35]: > 100 µM
GI50 [36]: 32.2 µM and 33.6 µM
TGI [36]: > 100 µM
GI50 [37]: 53.5 µM and > 100 µM
TGI [37]: > 100 µM
GI50 [38]: 33.5 µM and > 100 µM
TGI [38]: > 100 µM
GI50 [39]: 18 µM and 77.7 µM
TGI [39]: > 100 µM
GI50 [40]: > 100 µM
TGI [40]: > 100 µM
GI50 [41]: 73.3 µM and > 86 µM
TGI [41]: > 100 µM
GI50 [42]: 14.9 µM and 18 µM
TGI [42]: > 100 µM
GI50 [43]: > 100 µM
TGI [43]: > 100 µM
GI50 [44]: > 100 µM
TGI [44]: > 100 µM
GI50 [45]: > 100 µM
TGI [45]: > 100 µM
GI50 [46]: 71.7 µM and 40.7 µM
TGI [46]: > 100 µM
GI50 [47]: 27.6 µM and 29.1 µM
TGI [47]: > 100 µM
TGI [48]: > 100 µM
GI50 [49]: 47.4 µM and 34.2 µM
TGI [49]: > 100 µM
GI50 [50]: 31.5 µM
TGI [50]: > 100 µM
GI50 [51]: 32.8 µM and > 77.2 µM
TGI [51]: > 100 µM
GI50 [52]: 9.25 µM and 9.96 µM
TGI [52]: > 100 µM
GI50 [53]: 30.5 µM and 35.7 µM
TGI [53]: > 100 µM
GI50 [54]: 67.9 µM and 76.2 µM
TGI [54]: > 100 µM
GI50 [55]: > 100 µM and 99.1 µM
TGI [55]: > 100 µM
GI50 [56]: > 100 µM
TGI [56]: > 100 µM
GI50 [57]: 62.4 µM and > 100 µM
TGI [57]: > 100 µM
GI50 [58]: 53.2 µM and 59.6 µM
TGI [58]: > 100 µM

S=C(NCc1ccc2c(c1)OCO2)N1CCN(c2ncnc3c2oc2ccccc23)CC1
GI50 [1]: > 100 µM
TGI [1]: > 100 µM
GI50 [2]: 1.71 µM
TGI [2]: > 33.7 µM
GI50 [3]: 4.42 µM
TGI [3]: > 100 µM
GI50 [4]: > 100 µM
TGI [4]: > 100 µM
GI50 [5]: 6.88 µM
TGI [5]: > 100 µM
GI50 [6]: > 100 µM
TGI [6]: > 100 µM
GI50 [7]: > 100 µM
TGI [7]: > 100 µM
GI50 [8]: 0.451 µM
TGI [8]: > 100 µM
GI50 [9]: 5.93 µM
TGI [9]: > 100 µM
GI50 [10]: 18 µM
TGI [10]: > 100 µM
GI50 [11]: > 100 µM
TGI [11]: > 100 µM
GI50 [12]: > 63.3 µM
TGI [12]: > 100 µM
GI50 [13]: 50.3 µM
TGI [13]: > 100 µM
GI50 [14]: 3.95 µM
TGI [14]: > 100 µM
GI50 [15]: > 100 µM
TGI [15]: > 100 µM
GI50 [16]: > 100 µM
TGI [16]: > 100 µM
GI50 [17]: 36.7 µM
TGI [17]: > 100 µM
GI50 [18]: > 82.7 µM
TGI [18]: > 100 µM
GI50 [19]: > 100 µM
TGI [19]: > 100 µM
GI50 [20]: 8.16 µM
TGI [20]: > 100 µM
GI50 [21]: 1.12 µM
GI50 [22]: > 100 µM
TGI [22]: > 100 µM
GI50 [23]: 3.7 µM
TGI [23]: > 100 µM
GI50 [24]: > 100 µM
TGI [24]: > 100 µM
GI50 [25]: 3.25 µM
TGI [25]: > 100 µM
GI50 [26]: > 100 µM
TGI [26]: > 100 µM
GI50 [27]: > 100 µM
TGI [27]: > 100 µM
GI50 [28]: > 100 µM
TGI [28]: > 100 µM
GI50 [29]: 24 µM
TGI [29]: > 100 µM
GI50 [30]: > 100 µM
TGI [30]: > 100 µM
GI50 [31]: 5.43 µM
TGI [31]: > 100 µM
GI50 [32]: 5.38 µM
TGI [32]: > 100 µM
GI50 [33]: 27.2 µM
TGI [33]: > 100 µM
GI50 [34]: 5.34 µM
TGI [34]: > 100 µM
GI50 [35]: 3.6 µM
TGI [35]: > 100 µM
GI50 [36]: 26.9 µM
TGI [36]: > 100 µM
GI50 [37]: > 100 µM
TGI [37]: > 100 µM
GI50 [38]: > 100 µM
TGI [38]: > 100 µM
GI50 [39]: 3.5 µM
TGI [39]: > 100 µM
GI50 [40]: > 100 µM
TGI [40]: > 100 µM
GI50 [41]: > 71.4 µM
TGI [41]: > 100 µM
GI50 [42]: > 100 µM
TGI [42]: > 100 µM
GI50 [43]: 4.69 µM
TGI [43]: > 100 µM
GI50 [44]: 66.1 µM
TGI [44]: > 100 µM
GI50 [45]: 7.24 µM
TGI [45]: > 100 µM
GI50 [46]: > 21.7 µM
TGI [46]: > 100 µM
GI50 [47]: 0.575 µM
TGI [47]: 3.28 µM
GI50 [48]: 14.3 µM
TGI [48]: > 100 µM
GI50 [49]: 4.83 µM
TGI [49]: > 100 µM
GI50 [50]: 2.3 µM
TGI [50]: > 100 µM
GI50 [51]: 25.2 µM
TGI [51]: > 100 µM
GI50 [52]: 6.85 µM
TGI [52]: > 100 µM
GI50 [53]: 6.6 µM
TGI [53]: > 100 µM
GI50 [54]: 14.1 µM
TGI [54]: > 100 µM
GI50 [55]: 3.68 µM
TGI [55]: > 100 µM
GI50 [56]: 4.87 µM
TGI [56]: > 95.4 µM
GI50 [57]: > 100 µM
TGI [57]: > 100 µM
GI50 [58]: > 100 µM
TGI [58]: > 100 µM

From PubChem BioAssay (NCI)
